According to patent publication US7307145B2, “Sodium-independent transporter transporting small-sized neutral amino acid, gene thereof and method of analyzing transporter function by constructing fused proteins enabling the specification of the function” (Japan Science and Technology Agency, priority 2001, dated 2007):

T1: Asc-2-rBAT (Mus musculus, UniProt Q8VIE6+Q91WV7)
T1 construct: expressed in transfected cells; host or cells: oocyte injected with cRNA
T1 sequence (Q8VIE6+Q91WV7 with tags, fused parts or gaps): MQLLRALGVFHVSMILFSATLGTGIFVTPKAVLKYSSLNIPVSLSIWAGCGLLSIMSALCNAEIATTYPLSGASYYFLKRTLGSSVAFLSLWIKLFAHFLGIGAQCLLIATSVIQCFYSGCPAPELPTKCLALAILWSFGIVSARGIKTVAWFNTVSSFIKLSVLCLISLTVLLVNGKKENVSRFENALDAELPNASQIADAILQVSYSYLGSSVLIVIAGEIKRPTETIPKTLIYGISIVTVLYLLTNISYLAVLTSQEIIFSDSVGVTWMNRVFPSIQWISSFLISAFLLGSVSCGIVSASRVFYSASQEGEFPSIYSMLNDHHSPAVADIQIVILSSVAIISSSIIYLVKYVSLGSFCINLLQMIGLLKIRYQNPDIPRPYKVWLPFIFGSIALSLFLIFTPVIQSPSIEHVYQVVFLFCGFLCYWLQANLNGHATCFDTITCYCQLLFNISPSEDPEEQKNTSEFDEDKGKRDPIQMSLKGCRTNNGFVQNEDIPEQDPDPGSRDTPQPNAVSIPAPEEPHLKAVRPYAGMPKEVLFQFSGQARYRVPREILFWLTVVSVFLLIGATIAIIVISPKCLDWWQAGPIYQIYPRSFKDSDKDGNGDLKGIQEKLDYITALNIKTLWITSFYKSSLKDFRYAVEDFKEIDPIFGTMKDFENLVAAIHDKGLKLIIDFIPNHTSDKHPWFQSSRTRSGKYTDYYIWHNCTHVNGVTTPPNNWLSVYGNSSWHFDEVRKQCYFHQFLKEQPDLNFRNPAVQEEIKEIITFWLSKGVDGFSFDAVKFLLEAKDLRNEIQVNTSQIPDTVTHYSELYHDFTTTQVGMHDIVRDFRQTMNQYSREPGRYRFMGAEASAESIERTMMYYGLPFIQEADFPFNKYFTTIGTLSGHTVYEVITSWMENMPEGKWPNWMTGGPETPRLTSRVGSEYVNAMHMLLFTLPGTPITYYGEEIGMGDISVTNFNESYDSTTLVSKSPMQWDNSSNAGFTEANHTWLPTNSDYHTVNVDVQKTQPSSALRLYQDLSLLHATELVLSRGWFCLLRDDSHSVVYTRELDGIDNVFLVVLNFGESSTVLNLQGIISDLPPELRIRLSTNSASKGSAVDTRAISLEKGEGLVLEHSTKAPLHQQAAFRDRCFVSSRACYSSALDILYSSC


How the values were obtained:
Asc-2-rBAT [1] = molecular target: T1, Asc-2-rBAT; experiment: Inhibition test: 14C-serine uptake by oocytes expressing Asc-2-rBAT with added amino acids and analogues; format: cell-based; conditions: 14C-serine 5 μM; non-labeled compound 500 μM; Na+-free uptake solution
Method: In a serine uptake test in an oocyte into which a cRNA of the gene of the fusion protein of the Asc-2 with the rBAT (Asc-2-rBAT) was injected, the effect of amino acids and their analogues on the system was investigated.
The serine uptake test was conducted using the oocyte into which a cRNA of the gene of the fusion protein of the Asc-2 with the rBAT (Asc-2-rBAT) was injected in accordance with the method in Section (2) in Example 2 described above. Nevertheless, the test was conducted using as a sodium-free uptake solution (Na^+-free uptake solution), and the ^14C-serine (5 μM) uptake was measured in the presence or absence of various compounds (non-labeled) at 500 μM.

[2] = tested on: Asc-2 fusion protein with the 4F2hc or rBAT; experiment: Transport of amino acids by Asc-2 expressed on the cell membrane as fusion protein with 4F2hc or rBAT (summary statement); format: cell-based, mouse; conditions: Asc-2 fused with 4F2hc or rBAT
Text: In addition, L-methionine, L-leucine, L-isoleucine, L-valine, L-phenylalanine, L-tyrosine, L-histidine, D-serine and D-alanine are also transported at a low affinity.

Asc-2-rBAT [3] = molecular target: T1, Asc-2-rBAT; experiment: Uptake test of radiolabeled amino acids and analogues as substrates by oocytes expressing Asc-2-rBAT; format: cell-based; conditions: Asc-2-rBAT oocyte; 14C compound as substrate
Method: Using various amino acids and their analogues as substrates, the uptake by an oocyte into which a cRNA of the gene of the fusion protein of the Asc-2 with the rBAT (Asc-2-rBAT) had been injected was investigated.
The uptake test of various amino acids and their analogues was conducted using the oocyte into which a cRNA of the gene of the fusion protein of the Asc-2 with the rBAT (Asc-2-rBAT) had been injected in accordance with the method in Section (2) in Example 2 described above. Nevertheless, the test was conducted using as a substrate various compounds which were radiolabeled instead of ^14C-serine.

Asc-2-rBAT [4] = molecular target: T1, Asc-2-rBAT; experiment: Michaelis-Menten test of amino acid uptake by Xenopus oocytes injected with Asc-2-rBAT fusion protein cRNA; format: cell-based; conditions: Asc-2-rBAT expressed in oocyte; serine = 1.00; mean ± standard error, n=3
Method: (§1) A Michaelis-Menten pharmacodynamic test of a sodium-independent transporter Asc-2 transporting small-sized neutral amino acid was conducted. By investigating the change in the ratio of serine uptake by the difference in the substrate serine concentration, the Michaelis-Menten pharmacodynamic test of the Asc-2 was conducted.
(§2) The serine uptake test was conducted using the oocyte into which a cRNA of the gene of the fusion protein of the Asc-2 with the 4F2hc or the rBAT (Asc-2-4F2hc or Asc-2-rBAT) was injected in accordance with the method in Section (2) in Example 2 described above.
(§3) The Michaelis-Menten pharmacodynamic tests were conducted also for the amino acids, other than serine, which also serve as the substrates for the Asc-2, and the Km and Vmax values were calculated and are shown in the following Table 1.

N[C@@H](CO)C(=O)O = tested on: T2, N[C@@H](CO)C(=O)O; experiment: Michaelis-Menten test of serine uptake by Xenopus oocytes injected with Asc-2-4F2hc fusion protein cRNA; format: cell-based, mouse; conditions: other: Asc-2-4F2hc expressed in oocyte
T2 construct: expressed in transfected cells; host or cells: oocyte injected with cRNA
Method: as §1, §2

[5] = substrate: C[C@H](N)C(=O)O; experiment: cells, lysate or membranes; conditions: other: Asc-2-rBAT expressed in oocyte; mean ± standard error, n=3
[6] = substrate: C[C@@H](O)[C@H](N)C(=O)O; experiment: cells, lysate or membranes; conditions: other: Asc-2-rBAT expressed in oocyte; mean ± standard error, n=3
[7] = substrate: NCC(=O)O; experiment: cells, lysate or membranes; conditions: other: Asc-2-rBAT expressed in oocyte; mean ± standard error, n=3
[8] = substrate: N[C@@H](CO)C(=O)O; experiment: Michaelis-Menten test of amino acid uptake by Xenopus oocytes injected with Asc-2-rBAT fusion protein cRNA; format: cell-based, mouse; conditions: other: Asc-2-rBAT expressed in oocyte; mean ± standard error, n=3
Method: as §1, §2, §3

[9] = substrate: N[C@@H](CS)C(=O)O; experiment: as above; format: cell-based, mouse; conditions: other: Asc-2-rBAT expressed in oocyte; mean ± standard error, n=3
Method: as §1, §2, §3

[10] = substrate: CC(C)[C@H](N)C(=O)O; experiment: as above; format: cell-based, mouse; conditions: other: Asc-2-rBAT expressed in oocyte; mean ± standard error, n=3
Method: as §1, §2, §3

[11] = substrate: CC(C)C[C@H](N)C(=O)O; experiment: as above; format: cell-based, mouse; conditions: other: Asc-2-rBAT expressed in oocyte; mean ± standard error, n=3
Method: as §1, §2, §3

Molecule | Effect on Asc-2-rBAT-mediated 14C-serine uptake (cis-inhibition) (Asc-2-rBAT [1]) | Vmax (ratio to the Vmax of serine) (Asc-2-rBAT [4]) | Affinity of transport by Asc-2 fusion protein [2] | also measured
C[C@@H](N)C(=O)O [D-alanine] |  |  | low affinity | 
N[C@H](CO)C(=O)O [D-serine] |  |  | low affinity | 
N[C@@H](Cc1c[nH]cn1)C(=O)O [L-histidine] |  |  | low affinity | 
CC[C@H](C)[C@H](N)C(=O)O [L-isoleucine] |  |  | low affinity | 
CSCC[C@H](N)C(=O)O [L-methionine] |  |  | low affinity | 
N[C@@H](Cc1ccccc1)C(=O)O [L-phenylalanine] |  |  | low affinity | 
N[C@@H](Cc1ccc(O)cc1)C(=O)O [L-tyrosine] |  |  | low affinity | 
Asc-2-4F2hc (Mus musculus) |  |  |  | Km (N[C@@H](CO)C(=O)O): 2.10 µM
Asc-2-rBAT (Mus musculus) (protein, expressed in transfected cells; host or cells: oocyte injected with cRNA) MQLLRALGVFHVSMILFSATLGTGIFVTPKAVLKYSSLNIPVSLSIWAGCGLLSIMSALCNAEIATTYPLSGASYYFLKRTLGSSVAFLSLWIKLFAHFLGIGAQCLLIATSVIQCFYSGCPAPELPTKCLALAILWSFGIVSARGIKTVAWFNTVSSFIKLSVLCLISLTVLLVNGKKENVSRFENALDAELPNASQIADAILQVSYSYLGSSVLIVIAGEIKRPTETIPKTLIYGISIVTVLYLLTNISYLAVLTSQEIIFSDSVGVTWMNRVFPSIQWISSFLISAFLLGSVSCGIVSASRVFYSASQEGEFPSIYSMLNDHHSPAVADIQIVILSSVAIISSSIIYLVKYVSLGSFCINLLQMIGLLKIRYQNPDIPRPYKVWLPFIFGSIALSLFLIFTPVIQSPSIEHVYQVVFLFCGFLCYWLQANLNGHATCFDTITCYCQLLFNISPSEDPEEQKNTSEFDEDKGKRDPIQMSLKGCRTNNGFVQNEDIPEQDPDPGSRDTPQPNAVSIPAPEEPHLKAVRPYAGMPKEVLFQFSGQARYRVPREILFWLTVVSVFLLIGATIAIIVISPKCLDWWQAGPIYQIYPRSFKDSDKDGNGDLKGIQEKLDYITALNIKTLWITSFYKSSLKDFRYAVEDFKEIDPIFGTMKDFENLVAAIHDKGLKLIIDFIPNHTSDKHPWFQSSRTRSGKYTDYYIWHNCTHVNGVTTPPNNWLSVYGNSSWHFDEVRKQCYFHQFLKEQPDLNFRNPAVQEEIKEIITFWLSKGVDGFSFDAVKFLLEAKDLRNEIQVNTSQIPDTVTHYSELYHDFTTTQVGMHDIVRDFRQTMNQYSREPGRYRFMGAEASAESIERTMMYYGLPFIQEADFPFNKYFTTIGTLSGHTVYEVITSWMENMPEGKWPNWMTGGPETPRLTSRVGSEYVNAMHMLLFTLPGTPITYYGEEIGMGDISVTNFNESYDSTTLVSKSPMQWDNSSNAGFTEANHTWLPTNSDYHTVNVDVQKTQPSSALRLYQDLSLLHATELVLSRGWFCLLRDDSHSVVYTRELDGIDNVFLVVLNFGESSTVLNLQGIISDLPPELRIRLSTNSASKGSAVDTRAISLEKGEGLVLEHSTKAPLHQQAAFRDRCFVSSRACYSSALDILYSSC |  |  |  | Km [5]: 2.35 ± 0.30 µM; Km [6]: 2.72 ± 0.44 µM; Km [7]: 2.15 ± 0.35 µM; Km [8]: 2.88 ± 0.37 µM; Km [9]: 3.13 ± 0.57 µM; Km [10]: 34.8 ± 10.6 µM; Km [11]: 39.6 ± 4.3 µM

More lines, main results first:

Effect on Asc-2-rBAT-mediated 14C-serine uptake (cis-inhibition) (Asc-2-rBAT [1]) | Vmax (ratio to the Vmax of serine) (Asc-2-rBAT [4]) | Molecule | Affinity of transport by Asc-2 fusion protein [2] | also measured
no effect |  | NC1(C(=O)O)CC2CCC1C2 (centres unmarked) [BCH, 2-amino-2-norbornane-carboxylic acid] |  | 
inhibited potently | 1.18 ± 0.05 | NCC(=O)O [Glycine] | high affinity | Uptake of radiolabeled compound into the oocyte (Asc-2-rBAT [3]): substantial uptake
inhibited potently | 0.83 ± 0.08 | C[C@H](N)C(=O)O [L-Alanine] | high affinity | Uptake of radiolabeled compound into the oocyte (Asc-2-rBAT [3]): substantial uptake
inhibited potently | 0.19 ± 0.03 | N[C@@H](CS)C(=O)O [L-Cysteine] | high affinity | 
 | 1.17 ± 0.11 | CC(C)C[C@H](N)C(=O)O [L-Leucine] | low affinity | 
inhibited potently | (1.00) | N[C@@H](CO)C(=O)O [L-Serine] | high affinity | Uptake of radiolabeled compound into the oocyte (Asc-2-rBAT [3]): substantial uptake
inhibited potently | 0.53 ± 0.06 | C[C@@H](O)[C@H](N)C(=O)O [L-Threonine] | high affinity | Uptake of radiolabeled compound into the oocyte (Asc-2-rBAT [3]): substantial uptake
 | 0.79 ± 0.22 | CC(C)[C@H](N)C(=O)O [L-Valine] | low affinity | 
no effect |  | NCCCC(=O)O [γ-aminoisoyric acid] |  | 
no effect |  | α-aminoisometylic acid |  | 
